Source: patent US20040058056A1, “Drug diffusion coatings, applications and methods” (priority 2003, published 2004)
Each block holds one compound with its values, some of them ahead of it.

Assays:
Type in all cases: physicochemical
[1] = Elution of rapamycin from TMCTS plasma-coated stainless steel coupons in porcine serum
Protocol: The elution time of rapamycin from the surface of stainless steel coupons was evaluated as a function of plasma deposition time. One side of stainless steel coupons was coated with 100±10 μg of rapamycin dissolved in chloroform (0.2%, w/v). After air drying at room temperature, the coated surfaces were plasma coated with TMCTS. The plasma was generated at 83 W and 55 mTorr with a mass flow rate of 84 sccm at various time lengths between 30 and 300 seconds. The coated coupons were extracted with porcine serum mixed with 0.02% NaN3 as the preservative at 37° C. The remaining amounts of the drug on the coupon was extracted with 2 ml of methanol for 2 hours at room temperature and assayed by HPLC at 277 nm, utilizing an HPLC system calibrated with known amounts of rapamycin.

[2] = Elution of daunomycin from PHEMA-coated stainless steel coupons with TMCTS plasma membrane; conditions: buffered saline pH 7.4; absorbance at 480 nm; different TMCTS plasma deposition times
Protocol: Before drug application and plasma coating to 0.71 cm×0.71 cm 316 stainless steel coupon surfaces, all the coupons were cleaned with Acationox detergent, rinsed exhaustively with water, and air-dried. The coupons were then dip-coated in 80% ethanol containing 5% PHEMA and 5 mg/ml of daunomycin. After dipping, the coupons were wicked to remove excess solution, and air-dried under a gentle flow of warm air. Thereafter, the coated coupons were stored in the dark. The drug-coated coupons were then plasma-deposited with TMCTS for varying amounts of time. The plasma was generated at 83 W and 55 mTorr with a mass flow rate of 84 sccm of TMCTS monomer vapor. The coating thickness could be precisely controlled by plasma deposition time, with a coating thickness in the range of 5 to 200 nm.
The coupons were eluted in buffered saline at pH 7.4. The eluted drug was measured spectrophotometrically at 480 nm for daunomycin. The absorbance change was proportional to the concentration of daunomycin.

[3] = Elution of NPC-15199 from PHEMA-coated stainless steel coupons with TMCTS plasma membrane; conditions: buffered saline pH 7.4, room temperature
Protocol: N-(9-fluorenylmethoxycarbonyl)-L-leucine (NPC-15199), an anti-inflammatory drug, was coated on a stainless steel coupon by dip-coating the coupon in a mixture of 20 mM NPC-15199 in a 60:40 solution of acetone:water containing 7.5% poly(2-hydroxyethyl methacrylate) (“PHEMA”). The coupon was then air dried for about 5 minutes at approximately 60° C. TMCTS plasma was deposited on different NPC-15199 coated coupons for 20, 40, 60 and 80 seconds, respectively. […] at pH 7.4 at room temperature. Elution of NPC-15199 was measured by change in absorbance using a spectrophotometer.
The plasma was generated at 83 W and 55 mTorr with a mass flow rate of 84 sccm; under these conditions a micro-thin siloxane membrane is deposited on the targeted surface, with the thickness directly related to the length of time of plasma deposition.

% Remaining ([1]; 0 (uncoated) TMCTS deposition, elution time 0 hours): 100% | % Remaining ([1]; 0 (uncoated) TMCTS deposition, elution time 17 hours, porcine serum 37° C.): 0% | % Remaining ([1]; TMCTS deposition 30 seconds, elution time 64 hours, porcine serum 37° C.): 2.6% | Estimated Half-Life ([1]; TMCTS deposition 30 seconds, porcine serum 37° C.): 12 h | % Remaining ([1]; TMCTS deposition 60 seconds, elution time 64 hours, porcine serum 37° C.): 33.2% | Estimated Half-Life ([1]; TMCTS deposition 60 seconds, porcine serum 37° C.): 41 h | % Remaining ([1]; TMCTS deposition 120 seconds, elution time 47.5 hours, porcine serum 37° C.): 67.7% | Estimated Half-Life ([1]; TMCTS deposition 120 seconds, porcine serum 37° C.): 84 h | % Remaining ([1]; TMCTS deposition 180 seconds, elution time 24 hours, porcine serum 37° C.): 76.3% | Estimated Half-Life ([1]; TMCTS deposition 180 seconds, porcine serum 37° C.): 94 h | % Remaining ([1]; TMCTS deposition 240 seconds, elution time 24 hours, porcine serum 37° C.): 93.6% | Estimated Half-Life ([1]; TMCTS deposition 240 seconds, porcine serum 37° C.): 211 h | % Remaining ([1]; TMCTS deposition 300 seconds, elution time 47.5 hours, porcine serum 37° C.): 91.9% | Estimated Half-Life ([1]; TMCTS deposition 300 seconds, porcine serum 37° C.): 360 h
SMILES: CO[C@H]1C[C@@H]2CC[C@@H](C)[C@@](O)(O2)C(=O)C(=O)N2CCCC[C@H]2C(=O)O[C@H]([C@H](C)C[C@@H]2CC[C@@H](O)[C@H](OC)C2)CC(=O)[C@H](C)/C=C(\C)[C@@H](O)[C@@H](OC)C(=O)[C@H](C)C[C@H](C)/C=C/C=C/C=C/1C [rapamycin]

SMILES: COc1cccc2c1C(=O)c1c(O)c3c(c(O)c1C2=O)C[C@@](O)(C(C)=O)C[C@@H]3O[C@H]1C[C@H](N)[C@H](O)[C@H](C)O1 [daunomycin]
drug diffusion time [2]: controlled by the TMCTS coating thickness

SMILES: CC(C)C[C@H](NC(=O)OCC1c2ccccc2-c2ccccc21)C(=O)O [NPC-15199, N-(9-fluorenylmethoxycarbonyl)-L-leucine]
T1/2 (half-elution time) ([3]; TMCTS plasma deposition time 20 seconds): 50 s | T1/2 (half-elution time) ([3]; TMCTS plasma deposition time 40 seconds): 100 s | T1/2 (half-elution time) ([3]; TMCTS plasma deposition time 60 seconds): 150 s | T1/2 (half-elution time) ([3]; TMCTS plasma deposition time 80 seconds): 240 s
